Measurements as given in US20240199571A1, “THIOPHENE COMPOUND AND APPLICATION THEREOF” (MEDSHINE DISCOVERY INC., priority 2021, published 2024).
pIC50: −log10 of the molar value. Where a name gives a salt, the structure may show the parent alone.

Experiments:
NCI-H1417 cells = assay: Experiment 2: inhibition of NCI-H1417 cell proliferation (CellTiter-Glo, 10 days); format: cell-based; conditions: Homo sapiens, 240 h, 10 days incubation
Description: Experiment 2: Evaluation of Inhibitory Activity on NCI-H1417 Cell Proliferation
Experimental purpose: To test the inhibitory activity of test compounds on NCI-H1417 cell proliferation.
Experimental materials: RPMI 1640 medium, fetal bovine serum, Promega CellTiter-Glo reagent. The NCI-H1417 cell line was purchased from ATCC. Envision multilabel plate reader (PerkinElmer).
Experimental method: The compounds were dissolved to 10 mM and 5-fold diluted with DMSO in the compound plates, starting with a concentration of 2 mM. 3-fold serial dilution was performed with Bravo to 10 concentrations. Then 250 nL of the compound solution was transferred to the upper and lower double duplicate wells of a blank 384 cell plate with Echo. To each well containing the transferred 250 nL of DMSO/compound was added a cell suspension of 1000 cells/50 μL per well, and the compound was diluted 200-fold, i.e., resulting in an initial working concentration of 10 μM. The cell plate was incubated in a carbon dioxide incubator for 10 days. To the cell plate was added 25 μL of Promega CellTiter-Glo reagent per well and the mixture was shaken for 10 minutes at room temperature to stabilize the luminescence signal. Readings were performed on a PerkinElmer Envision multilabel plate reader.
Data analysis: Raw data were converted into inhibition rate using the formula: (Max−Ratio)/(Max−Min)*100%. The IC50 values could then be derived from four-parameter curve fitting. (derived from 205 mode in XLFIT5, iDBS)
The compounds were tested for inhibitory activity of compounds on NCI-H1417 cell proliferation, and the results are shown in Table 3.

human LSD1 = human LSD1 (Homo sapiens (Human), UniProt O60341); assay: Experiment 1B: in vitro LSD1 enzyme activity, enzyme-coupled fluorescence (HRP/Amplex Red), H3(1-21)K4me2 peptide 10 μM (Reaction Biology); format: biochemical; conditions: histone H3(1-21)K4me2 peptide 10 μM
Description: Experiment 1B: Evaluation of Enzyme Activity
Testing unit: Reaction Biology Corp., USA.
The purpose of the assay was to test the in vitro inhibitory activity of the compounds against LSD1. The enzyme used in the assay was human LSD1, and the standard substrate was histone H3(1-21)K4me2 peptide (10 μM). The activity of the compounds was determined by the enzyme-coupling fluorescent method by the combined detection of H2O2 generated after the reaction of LSD1 by horseradish peroxidase (HRP) and the fluorescent reagent Amplex Red. Starting from 10 μM, the compounds were 3-fold diluted to detect the IC50 values of the compounds at 10 concentrations. The enzyme and substrate were incubated for 30 minutes before the compound was added to the substrate to start the reaction. Fluorescence detector: EnVision, excitation wavelength: Ex/Em=535/590 nM.

pIC50 (NCI-H1417 cells)	pIC50 (human LSD1)	SMILES
7.73	7.02	COc1ccc(-c2sc(C(=O)N3CCCN(CC#N)CC3)cc2-c2ccc(C#N)c(F)c2)cc1F [Compound 40]
8.04	7.55	CC(C)(O)c1ccc(-c2sc(C(=O)N3CCC[C@@H](N)C3)cc2-c2ccc(C#N)c(F)c2)cc1 [Compound 50]
8.82	7.98	CC(C)(O)Cn1ncc2cc(-c3sc(C(=O)N4CCC[C@@H](N)C4)cc3-c3ccc(C#N)c(F)c3)ccc21 [Compound 57]
8.45	7.69	CC(C)(O)Cn1cc2cc(-c3sc(C(=O)N4CCC[C@@H](N)C4)cc3-c3ccc(C#N)c(F)c3)ccc2n1 [Compound 58]
	7.48	N#Cc1ccc(-c2cc(C(=O)N3CCC[C@@H](N)C3)sc2-c2ccc3nccn3c2)cc1F [Compound 74]
	7.32	N#Cc1ccc(-c2cc(C(=O)N3CCC[C@@H](N)C3)sc2-c2ccn3cncc3c2)cc1F [Compound 78]
	7.19	COc1ccc(-c2sc(C(=O)N3CC[C@H](F)[C@@H](N)C3)cc2-c2ccc(C#N)c(F)c2)cc1F [Hydrochloride of compound 19]
	7.11	COc1ccc(-c2sc(C(=O)N3CCC4(CC3)COCC4N)cc2-c2ccc(C#N)c(F)c2)cc1F (centres unmarked) [Hydrochloride of compound 23]
	7.19	COc1ccc(-c2sc(C(=O)N3CCCNCC3C)cc2-c2ccc(C#N)c(F)c2)cc1F (centres unmarked) [Hydrochloride of compound 25]
	7.32	COc1ccc(-c2sc(C(=O)N[C@@H]3CCNC3)cc2-c2ccc(C#N)c(F)c2)cc1F [Hydrochloride of compound 27]
	7.00	N#Cc1ccc(-c2cc(C(=O)N3CCC[C@@H](N)C3)sc2-c2ccc(N)nc2)cc1F [Hydrochloride of compound 49]
	6.60	Cn1cc(-c2sc(C(=O)N3CCC[C@@H](N)C3)cc2-c2ccc(C#N)c(F)c2)cn1 [Hydrochloride of compound 52]
7.54		N#Cc1ccc(-c2cc(C(=O)N3CCC[C@@H](N)C3)sc2-c2ccc3n[nH]cc3c2)cc1F [Hydrochloride of compound 63]
7.96		Cn1cc2ccc(-c3sc(C(=O)N4CCC[C@@H](N)C4)cc3-c3ccc(C#N)c(F)c3)cc2n1 [Hydrochloride of compound 65]
	7.13	N#Cc1ccc(-c2cc(C(=O)N3CCC[C@@H](N)C3)sc2-c2ccc3ncncc3c2)cc1F [Hydrochloride of compound 66]
9.19		Cc1c2cc(-c3sc(C(=O)N4CCC[C@@H](N)C4)cc3-c3ccc(C#N)c(F)c3)ccc2nn1C [Hydrochloride of compound 71]
8.21		CN(C)[C@@H]1CCCN(C(=O)c2cc(-c3ccc(C#N)c(F)c3)c(-c3ccc4nn(C(C)(C)CO)cc4c3)s2)C1 [Hydrochloride of compound 105]
9.72		CN(C)[C@@H]1CCCN(C(=O)c2cc(-c3ccc(C#N)c(F)c3)c(-c3cc4nnn(CC(C)(C)O)c4c(F)c3F)s2)C1 [Hydrochloride of compound 106]
8.68		CN[C@@H]1CCCN(C(=O)c2cc(-c3ccc(C#N)c(F)c3)c(-c3ccc(N4CC[C@H](O)C4)cc3)s2)C1 [Hydrochloride of compound 108]
8.40		CN[C@@H]1CCCN(C(=O)c2cc(-c3ccc(C#N)c(F)c3)c(-c3ccc(N4CC[C@@H](O)C4)cc3F)s2)C1 [Hydrochloride of compound 113]
8.29		N#Cc1ccc(-c2cc(C(=O)N3CCC[C@@H](N)C3)sc2-c2ccc(N3CC[C@H](O)C3)cc2F)cc1F [Hydrochloride of compound 114]
8.71		CN[C@@H]1CCCN(C(=O)c2cc(-c3ccc(C#N)c(F)c3)c(-c3ccc(N4CC[C@H](O)C4)cc3F)s2)C1 [Hydrochloride of compound 115]
	8.03	N#Cc1ccc(-c2cc(C(=O)N3CCCNCC3)sc2-c2ccc(N3CC[C@H](O)C3)cc2)cc1F [Hydrochloride of compound 116]

SMILES	pIC50 (NCI-H1417 cells)	pIC50 (human LSD1)
Cn1nnc2cc(-c3sc(C(=O)N4C5CCC4C(N)C5)cc3-c3ccc(C#N)c(F)c3)ccc21 (centres unmarked) [Compound 14]	9.27	8.27
